Legend:
[1] = test system: S. pneumoniae D39V; assay: fitness (endpoint OD595 vs no drug) (fraction); higher = more growth
How it was run: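 Fitness expresses the optical density reached at the stationary-phase transition as a fraction of the robust mean of no-drug control wells. It is capped at 1. Measurements were OD595 every 30 min for 14 h at 37 °C after inoculation of 384-well plates at OD595 0.01 (30 µl, or 55 µl for S. pneumoniae), minus the first reading.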

[2] = test system: B. subtilis 168; assay: Bliss interaction score (quartile over a dose matrix) (fitness difference); higher = more antagonism (negative = synergy)
How it was run: (§1)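 Fitness is OD595 at stationary-phase entry relative to the plate's robust no-drug mean, capped at 1. Single-drug fitness was inferred from combinations. The Bliss score is observed minus product-expected fitness, summarised by quartiles over technical, biological and donor/recipient replicates.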

[3] = test system: S. aureus DSM 20231; assay: as above
How it was run: as §1

[4] = test system: S. aureus Newman; assay: as above
How it was run: as §1

[5] = test system: S. pneumoniae D39V; assay: as above
How it was run: as §1
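Wherever Bliss interaction score (quartile over a dose matrix) is given: first quartile when negative (synergy) and third quartile when positive (antagonism).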

## CO/N=C(\C(=O)N[C@@H]1C(=O)N2C(C(=O)O)=C(COC(C)=O)CS[C@H]12)c1csc(N)n1 [Cefotaxime] + O=C1CN(/N=C/c2ccc([N+](=O)[O-])o2)C(=O)N1 [Nitrofurantoin]
[1]; first compound 0.0018 µg/mL, partner 1.285 µg/mL
  fitness: 0.974
[1]; first compound 0.0018 µg/mL, partner 2 µg/mL
  fitness: 0.94
[1]; first compound 0.0018 µg/mL, partner 2.57 µg/mL
  fitness: 0.959
[1]; first compound 0.0018 µg/mL, partner 4 µg/mL
  fitness: 0.944
[1]; first compound 0.0018 µg/mL, partner 5.14 µg/mL, one replicate
  fitness: 0.981
[1]; first compound 0.0018 µg/mL, partner 8 µg/mL
  fitness: 0.873
[1]; first compound 0.0035 µg/mL, partner 1.285 µg/mL
  fitness: 0.963
[1]; first compound 0.0035 µg/mL, partner 2 µg/mL
  fitness: 0.92
[1]; first compound 0.0035 µg/mL, partner 2.57 µg/mL
  fitness: 0.965
[1]; first compound 0.0035 µg/mL, partner 4 µg/mL
  fitness: 0.916
[1]; first compound 0.0035 µg/mL, partner 5.14 µg/mL, one replicate
  fitness: 0.945
[1]; first compound 0.0035 µg/mL, partner 8 µg/mL
  fitness: 0.822
[1]; first compound 0.007 µg/mL, partner 1.285 µg/mL
  fitness: 0.923
[1]; first compound 0.007 µg/mL, partner 2 µg/mL
  fitness: 0.844
[1]; first compound 0.007 µg/mL, partner 2.57 µg/mL
  fitness: 0.923
[1]; first compound 0.007 µg/mL, partner 4 µg/mL
  fitness: 0.821
[1]; first compound 0.007 µg/mL, partner 5.14 µg/mL, one replicate
  fitness: 0.894
[1]; first compound 0.007 µg/mL, partner 8 µg/mL
  fitness: 0.733
[2]
  Bliss interaction score: -0.157
[3]
  Bliss interaction score: 0.0224
[4]
  Bliss interaction score: 0.0592
[5]
  Bliss interaction score: 0.142

## O=C(O)c1cn(C2CC2)c2cc(N3CCNCC3)c(F)cc2c1=O [Ciprofloxacin] + CC[C@H]1OC(=O)[C@H](C)[C@@H](O[C@H]2C[C@@](C)(OC)[C@@H](O)[C@H](C)O2)[C@H](C)[C@@H](O[C@@H]2O[C@H](C)C[C@H](N(C)C)[C@H]2O)[C@](C)(OC)C[C@@H](C)C(=O)[C@H](C)[C@@H](O)[C@]1(C)O [Clarithromycin]
[1]; first compound 0.125 µg/mL, partner 0.007812 µg/mL, one replicate
  fitness: 0.839
[1]; first compound 0.125 µg/mL, partner 0.01562 µg/mL, one replicate
  fitness: 0.844
[1]; first compound 0.125 µg/mL, partner 0.03125 µg/mL, one replicate
  fitness: 0.627
[1]; first compound 0.125 µg/mL, partner 0.0625 µg/mL
  fitness: 0.473
[1]; first compound 0.125 µg/mL, partner 0.07 µg/mL
  fitness: 0.151
[1]; first compound 0.125 µg/mL, partner 0.125 µg/mL
  fitness: 0.246
[1]; first compound 0.125 µg/mL, partner 0.14 µg/mL
  fitness: 0.0833
[1]; first compound 0.125 µg/mL, partner 0.25 µg/mL
  fitness: 0.0576
[1]; first compound 0.125 µg/mL, partner 0.28 µg/mL
  fitness: 0.0594
[1]; first compound 0.25 µg/mL, partner 0.007812 µg/mL, one replicate
  fitness: 0.742
[1]; first compound 0.25 µg/mL, partner 0.01562 µg/mL, one replicate
  fitness: 0.746
[1]; first compound 0.25 µg/mL, partner 0.03125 µg/mL, one replicate
  fitness: 0.536
[1]; first compound 0.25 µg/mL, partner 0.0625 µg/mL, one replicate
  fitness: 0.349
[1]; first compound 0.25 µg/mL, partner 0.07 µg/mL
  fitness: 0.166
[1]; first compound 0.25 µg/mL, partner 0.125 µg/mL, one replicate
  fitness: 0.17
[1]; first compound 0.25 µg/mL, partner 0.14 µg/mL
  fitness: 0.0864
[1]; first compound 0.25 µg/mL, partner 0.25 µg/mL, one replicate
  fitness: 0.0141
[1]; first compound 0.25 µg/mL, partner 0.28 µg/mL
  fitness: 0.0284
[1]; first compound 0.5 µg/mL, partner 0.007812 µg/mL, one replicate
  fitness: 0.472
[1]; first compound 0.5 µg/mL, partner 0.01562 µg/mL, one replicate
  fitness: 0.524
[1]; first compound 0.5 µg/mL, partner 0.03125 µg/mL, one replicate
  fitness: 0.398
[1]; first compound 0.5 µg/mL, partner 0.0625 µg/mL
  fitness: 0.374
[1]; first compound 0.5 µg/mL, partner 0.07 µg/mL
  fitness: 0.127
[1]; first compound 0.5 µg/mL, partner 0.125 µg/mL
  fitness: 0.191
[1]; first compound 0.5 µg/mL, partner 0.14 µg/mL
  fitness: 0.0639
[1]; first compound 0.5 µg/mL, partner 0.25 µg/mL
  fitness: 0.0761
[1]; first compound 0.5 µg/mL, partner 0.28 µg/mL
  fitness: 0.0531
[2]
  Bliss interaction score: 0.183
[3]
  Bliss interaction score: 0.0952
[4]
  Bliss interaction score: 0.0708
[5]
  Bliss interaction score: -0.0773

## O=C(O)c1cn(C2CC2)c2cc(N3CCNCC3)c(F)cc2c1=O [Ciprofloxacin] + CO[C@H]1/C=C/O[C@@]2(C)Oc3c(C)c(O)c4c(O)c(c(/C=N/N5CCN(C)CC5)c(O)c4c3C2=O)NC(=O)/C(C)=C\C=C\[C@H](C)[C@H](O)[C@@H](C)[C@@H](O)[C@@H](C)[C@H](OC(C)=O)[C@@H]1C [Rifampicin]
[1]; first compound 0.125 µg/mL, partner 0.025 µg/mL
  fitness: 0.954
[1]; first compound 0.125 µg/mL, partner 0.2 µg/mL, one replicate
  fitness: 0
[1]; first compound 0.25 µg/mL, partner 0.025 µg/mL
  fitness: 0.84
[1]; first compound 0.25 µg/mL, partner 0.2 µg/mL, one replicate
  fitness: 0
[1]; first compound 0.5 µg/mL, partner 0.025 µg/mL
  fitness: 0.795
[1]; first compound 0.5 µg/mL, partner 0.05 µg/mL
  fitness: 0.688
[1]; first compound 0.5 µg/mL, partner 0.2 µg/mL, one replicate
  fitness: 0
[2]
  Bliss interaction score: 0.162
[3]
  Bliss interaction score: -0.0712
[4]
  Bliss interaction score: 0.0614
[5]
  Bliss interaction score: 0.0532

— the supplement of paper PMC10627819
